Experimental findings from patent publication US20080165354A1, “Method and Apparatus For Dissolving Solid Matter in Liquid” (priority 2005, published 2008) are described below.

Structures are written as SMILES. “Also recorded” adds a separate entry of the source.

A short description of series [1]: Flow-through dissolution test, concentration of the dissolution medium by in-line UV-Vis spectrophotometer. The following applies: same setup as Example 1, flow rate 20 ml/min. Type of series: physicochemical. Here is the method: (§1) Dissolution testing was carried out employing simultaneous liquid/solid phase analysis. A modified flow-through dissolution method was used, in which • the concentration of the medium was measured with a UV-Vis spectrophotometer and • a simultaneous solid state analysis on the dissolving tablet in a flow-through chamber was performed using an in situ Raman spectroscopic analysis. The dissolution testing setup consisted of the flow-through cell, liquid reservoir (V=500 ml) and a peristaltic pump that circulates the medium (pump speed=70 rpm 9,3 ml/min). The dissolution medium used in the experiments was distilled water (room temperature).

Series [2] in a line: In situ Raman spectroscopic solid state analysis of the dissolving tablet in a flow-through chamber. The following applies: same setup as Example 1, flow rate 20 ml/min. It counts as physicochemical. Here is the method:
as §1, with “temperature). The Raman spectra were collected using a Raman spectrometer (Control Development, South Bend, Ind., USA) with a diode laser (Starbright 785 S, Torsana Laser Technologies, Skodsborg, Denmark) at 785 nm. A fiber optic sampling probe (InPhotonics, Norwood, MA, USA) was used. The spectral range measured was 2200-100 cm^−1 at a resolution of 5 cm^−1.” for “temperature).”

For the molecule `O=C1CN(/N=C/c2ccc([N+](=O)[O-])o2)C(=O)N1` [NF anhydrate, Nitrofurantoin], in series [1], the “changes of the dissolution rate” value is “more complicated when compared to changes in the dissolution rate of TP”. Further, the “solid phase transformation during dissolution” value in series [2] is listed as “solid phase transformation of NF anhydrate to NF monohydrate (II); also recorded: an order of magnitude slower than that of TP anhydrate”.
